Measurements reported in ChEMBL document CHEMBL1158333, “New diterpenes from the South African soft coral Eleutherobia aurea” (1997).

Assay: Antiinflammatory activity in rabbit neutrophils assessed as inhibition of fMLP-induced superoxide radical anion generation at 20 ug/mL
Type: functional
Conditions: Oryctolagus cuniculus, Neutrophil

**Q.** With `C=C(C)C(CC(OC(C)=O)C1=CO[C@H](OC(C)=O)[C@H]2C(=C)CC[C@@H]3O[C@@]3(C)CC[C@H]12)OC(C)=O` (stereo partly drawn) [7,8-EPOXYZAHAVIN A] as the molecule, how does the inhibition at 20 µg/mL read?
**A.** Its inhibition at 20 µg/mL is greater than 90%.

**Q.** Which inhibition at 20 µg/mL does the source give for `C=C(C)C(CC(OC(C)=O)C1=CO[C@H](OC(C)=O)[C@H]2C(=C)CC/C=C(\C)CC[C@H]12)OC(C)=O` (stereo partly drawn) [ZAHAVIN A] here?
**A.** The inhibition at 20 µg/mL was greater than 90%.

**Q.** For `C=C1CC/C=C(\C)CC[C@@H]2C(C(CC=C(C)C)OC(C)=O)=CO[C@H](OC(C)=O)[C@@H]12` (stereo partly drawn), which inhibition at 20 µg/mL is on record?
**A.** The inhibition at 20 µg/mL was greater than 90%.
